Experimental data reported in ChEMBL document CHEMBL5584237, “Design, synthesis, biological evaluation, and in silico studies of novel pyridopyridine derivatives as anticancer candidates targeting FMS kinase” (Eur J Med Chem, 2024).
Activity calls are given as the source filed them. The calls are words filed in the database; no cut-off is given here.

Tests used:
[1] = target: Macrophage colony-stimulating factor 1 receptor (Homo sapiens, UniProt P07333); experiment: Inhibition of FMS (unknown origin) using myelin basic protein as substrate measured after 40 mins in presence of [gamma-33P]-ATP by scintillation counting method; details: read-out: IC50
[2] = Selectivity index, ratio of IC50 for human WI-38 cells to IC50 for human M14 cells
[3] = Selectivity index, ratio of IC50 for human WI-38 cells to IC50 for human LOX IMVI cells
[4] = Selectivity index, ratio of IC50 for human HS27 cells to IC50 for human SW-620 cells
[5] = Selectivity index, ratio of IC50 for human HS27 cells to IC50 for human OVCAR-4 cells
NCI-H460 = experiment: Antiproliferative activity against human NCI-H460 cells assessed as cell growth inhibition; format: functional
K562 = experiment: Antiproliferative activity against human K562 cells assessed as cell growth inhibition; format: functional
LOX IMVI = experiment: Antiproliferative activity against human LOX IMVI cells assessed as cell growth inhibition; format: functional
[6] = Selectivity index, ratio of IC50 for human WI-38 cells to IC50 for human SW-620 cells
[7] = Selectivity index, ratio of IC50 for human HS27 cells to IC50 for human DU-145 cells
SW-620 = experiment: Antiproliferative activity against human SW-620 cells assessed as cell growth inhibition; format: functional
[8] = Selectivity index, ratio of IC50 for human HS27 cells to IC50 for human CAKI-1 cells
MDA-MB-231 = experiment: Antiproliferative activity against human MDA-MB-231 cells assessed as cell growth inhibition; format: functional
[9] = Cytotoxicity against human HS27 cells assessed as reduction in cell growth measured after 48 hrs by MTT assay; format: toxicity, cell-based
DU-145 = experiment: Antiproliferative activity against human DU-145 cells assessed as cell growth inhibition; format: functional
[10] = Selectivity index, ratio of IC50 for human HS27 cells to IC50 for human RXF 393 cells
MCF7 = experiment: Antiproliferative activity against human MCF7 cells assessed as cell growth inhibition; format: functional
HepG2 = experiment: cells; details: Homo sapiens, HepG2, 48 h
Description: Antiproliferative activity against human HepG2 cells assessed as cell growth inhibition measured after 48 hrs by MTT assay

[11] = Selectivity index, ratio of IC50 for human HS27 cells to IC50 for human SF-295 cells
[12] = Selectivity index, ratio of IC50 for human WI-38 cells to IC50 for human SK-MEL-28 cells
[13] = Selectivity index, ratio of IC50 for human HS27 cells to IC50 for human MDA-MB-468 cells
Hs-578T = experiment: Antiproliferative activity against human Hs-578T cells assessed as cell growth inhibition; format: functional
[14] = Selectivity index, ratio of IC50 for human HS27 cells to IC50 for human SN12C cells
[15] = Selectivity index, ratio of IC50 for human WI-38 cells to IC50 for human NCI-H460 cells; format: toxicity; details: WI-38 cells and NCI-H460 cells, read-out: Ratio IC50
[16] = Selectivity index, ratio of IC50 for human HS27 cells to IC50 for human 786-0 cells
Hep 3B2 [17] = experiment: Cell cycle arrest in human Hep3B cells assessed as upregulation of cyclin B1 expression at 3.38 uM measured after 48 hrs by Western blot analysis; format: functional, cell-based
SR = experiment: Antiproliferative activity against human SR cells assessed as cell growth inhibition; format: functional
[18] = Selectivity index, ratio of IC50 for human HS27 cells to IC50 for human HT-29 cells
Hep 3B2 [19] = experiment: Cell cycle arrest in human Hep3B cells assessed as downregulation of cyclin D1 expression at 0.5 x IC50 to IC50 measured after 48 hrs by Western blot analysis; format: functional, cell-based
COLO 205 = experiment: Antiproliferative activity against human COLO 205 cells assessed as cell growth inhibition; format: functional
[20] = Selectivity index, ratio of IC50 for human HS27 cells to IC50 for human K562 cells
[21] = Selectivity index, ratio of IC50 for human WI-38 cells to IC50 for human MOLT-4 cells
SF-539 = experiment: Antiproliferative activity against human SF-539 cells assessed as cell growth inhibition; format: functional
[22] = Selectivity index, ratio of IC50 for human HS27 cells to IC50 for human MDA-MB-231 cells
HCT-116 = experiment: Antiproliferative activity against human HCT-116 cells assessed as cell growth inhibition; format: functional
[23] = Selectivity index, ratio of IC50 for human HS27 cells to IC50 for human Malme-3M cells
A549 = experiment: Antiproliferative activity against human A549 cells assessed as cell growth inhibition; format: functional
[24] = Selectivity index, ratio of IC50 for human WI-38 cells to IC50 for human Malme-3M cells
[25] = Selectivity index, ratio of IC50 for human HS27 cells to IC50 for human LOX IMVI cells
[26] = Selectivity index, ratio of IC50 for human WI-38 cells to IC50 for human CCRF-CEM cells; format: toxicity; details: WI-38 cells and CCRF-CEM cells, read-out: Ratio IC50
[27] = Selectivity index, ratio of IC50 for human WI-38 cells to IC50 for human MCF7 cells; format: toxicity; details: WI-38 cells and MCF7 cells, read-out: Ratio IC50
SNB-75 = experiment: Antiproliferative activity against human SNB-75 cells assessed as cell growth inhibition; format: functional
[28] = Selectivity index, ratio of IC50 for human WI-38 cells to IC50 for human MDA-MB-435 cells
CCRF-CEM = experiment: Antiproliferative activity against human CCRF-CEM cells assessed as cell growth inhibition; format: functional
Hep 3B2 [29] = experiment: cells; details: Homo sapiens, Hep3B, 48 h
[30] = Selectivity index, ratio of IC50 for human WI-38 cells to IC50 for human SF-539 cells
[31] = Selectivity index, ratio of IC50 for human HS27 cells to IC50 for human M14 cells
Hep 3B2 [32] = experiment: Induction of apoptosis in human Hep3B cells assessed as increase in cleaved caspase-3 expression at 3.38 uM measured after 48 hrs by Western blot analysis relative to control; format: functional
MDA-MB-468 = experiment: Antiproliferative activity against human MDA-MB-468 cells assessed as cell growth inhibition; format: functional

Macrophage colony-stimulating factor 1 receptor, sequence (P07333 whole entry): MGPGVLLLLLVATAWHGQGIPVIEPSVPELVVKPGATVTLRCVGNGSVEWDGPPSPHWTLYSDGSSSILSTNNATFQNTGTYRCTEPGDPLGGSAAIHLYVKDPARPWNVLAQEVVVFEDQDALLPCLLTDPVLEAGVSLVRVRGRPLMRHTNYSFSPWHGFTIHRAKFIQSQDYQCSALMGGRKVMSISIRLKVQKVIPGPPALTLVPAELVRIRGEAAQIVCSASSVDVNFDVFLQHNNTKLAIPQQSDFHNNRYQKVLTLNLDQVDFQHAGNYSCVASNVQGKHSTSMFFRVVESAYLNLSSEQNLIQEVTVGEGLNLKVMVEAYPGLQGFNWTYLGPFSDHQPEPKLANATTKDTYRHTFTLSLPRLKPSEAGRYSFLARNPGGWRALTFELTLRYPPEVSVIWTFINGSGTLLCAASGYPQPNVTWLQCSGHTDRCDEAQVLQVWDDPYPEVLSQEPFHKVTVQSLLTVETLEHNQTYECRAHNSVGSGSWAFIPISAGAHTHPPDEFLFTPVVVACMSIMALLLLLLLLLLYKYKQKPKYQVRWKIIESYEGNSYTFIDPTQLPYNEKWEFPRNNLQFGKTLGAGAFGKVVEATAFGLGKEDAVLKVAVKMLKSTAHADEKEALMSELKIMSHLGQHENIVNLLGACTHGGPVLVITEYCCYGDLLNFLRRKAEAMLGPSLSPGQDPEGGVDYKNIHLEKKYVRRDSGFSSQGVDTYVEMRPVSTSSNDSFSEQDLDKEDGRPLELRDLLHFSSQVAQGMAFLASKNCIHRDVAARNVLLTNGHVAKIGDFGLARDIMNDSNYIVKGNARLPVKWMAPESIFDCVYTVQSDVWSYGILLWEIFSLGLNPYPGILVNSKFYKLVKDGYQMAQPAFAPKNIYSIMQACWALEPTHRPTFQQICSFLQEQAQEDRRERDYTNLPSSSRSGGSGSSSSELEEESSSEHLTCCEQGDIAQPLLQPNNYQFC

Compound: CCN1CCN(c2ccc(NC(=O)Nc3ccc(-c4cc(C(=O)NC(C)C)c5ncccc5n4)cc3)cc2C(F)(F)F)CC1
- IC50 [1]: 993 nM
- Ratio IC50 [2]: 8.62
- Ratio IC50 [3]: 8.62
- Ratio IC50 [4]: 9.77
- Ratio IC50 [5]: 3.05
- GI50 (NCI-H460): 620 nM
- TGI (NCI-H460): 1180 nM
- GI50 (K562): 1000 nM
- TGI (K562): 34500 nM
- GI50 (LOX IMVI): 560 nM
- TGI (LOX IMVI): 1050 nM
- Ratio IC50 [6]: 18.84
- Ratio IC50 [7]: 11.2
- GI50 (SW-620): 640 nM
- TGI (SW-620): 1260 nM
- Ratio IC50 [8]: 5.45
- GI50 (MDA-MB-231): 610 nM
- TGI (MDA-MB-231): 1180 nM
- IC50 at 48 h [9]: 8400 nM
- GI50 (DU-145): 750 nM
- TGI (DU-145): 1580 nM
- Ratio IC50 [10]: 5.45
- GI50 (MCF7): 630 nM
- TGI (MCF7): 1500 nM
- IC50 (HepG2): 460 nM
- Ratio IC50 [11]: 4.52
- Ratio IC50 [12]: 8.62
- Ratio IC50 [13]: 5.22
- GI50 (Hs-578T): 880 nM
- TGI (Hs-578T): 3450 nM
- Ratio IC50 [14]: 5.45
- selectivity ratio [15]: 6.4
- Ratio IC50 [16]: 5.45
- Activity (Hep 3B2 [17]): Active
- TGI (SR): 12100 nM
- Ratio IC50 [18]: 9.77
- Activity (Hep 3B2 [19]): inactive
- GI50 (COLO 205): 930 nM
- TGI (COLO 205): 2710 nM
- Ratio IC50 [20]: 8
- Ratio IC50 [21]: 15.43
- GI50 (SF-539): 530 nM
- TGI (SF-539): 1020 nM
- Ratio IC50 [22]: 5.22
- GI50 (HCT-116): 640 nM
- TGI (HCT-116): 1300 nM
- Ratio IC50 [23]: 4.47
- TGI (A549): 5770 nM
- Ratio IC50 [24]: 8.62
- Ratio IC50 [25]: 4.47
- selectivity ratio [26]: 15.4
- selectivity ratio [27]: 10.1
- GI50 (SNB-75): 980 nM
- TGI (SNB-75): 5140 nM
- Ratio IC50 [28]: 8.62
- TGI (CCRF-CEM): 3100 nM
- IC50 (Hep 3B2 [29]): 1690 nM
- Ratio IC50 [30]: 8.71
- Ratio IC50 [31]: 4.47
- fold change (FC) (Hep 3B2 [32]): 473.5
- GI50 (MDA-MB-468): 770 nM
- TGI (MDA-MB-468): 1850 nM
